Laboratory results reported in ChEMBL document CHEMBL3860037, “Design, synthesis and biological characterization of a new class of osteogenic (1H)-quinolone derivatives” (Eur J Med Chem, 2016).
Activity calls are given as the source filed them. The rule behind the calls is not given here.

How the values were obtained:
[1] = molecular target: Protein smoothened (Mus musculus) (UniProt P56726); test: Activity at Smo in mouse C3H10T1/2 cells assessed as induction of cell differentiation into osteoblast at 10 uM incubated for 6 days by alkaline phosphatase assay relative to GSA-10; assay type: cell-based; details: C3H 10T1/2
Protein smoothened (Mus musculus), sequence (P56726 whole entry): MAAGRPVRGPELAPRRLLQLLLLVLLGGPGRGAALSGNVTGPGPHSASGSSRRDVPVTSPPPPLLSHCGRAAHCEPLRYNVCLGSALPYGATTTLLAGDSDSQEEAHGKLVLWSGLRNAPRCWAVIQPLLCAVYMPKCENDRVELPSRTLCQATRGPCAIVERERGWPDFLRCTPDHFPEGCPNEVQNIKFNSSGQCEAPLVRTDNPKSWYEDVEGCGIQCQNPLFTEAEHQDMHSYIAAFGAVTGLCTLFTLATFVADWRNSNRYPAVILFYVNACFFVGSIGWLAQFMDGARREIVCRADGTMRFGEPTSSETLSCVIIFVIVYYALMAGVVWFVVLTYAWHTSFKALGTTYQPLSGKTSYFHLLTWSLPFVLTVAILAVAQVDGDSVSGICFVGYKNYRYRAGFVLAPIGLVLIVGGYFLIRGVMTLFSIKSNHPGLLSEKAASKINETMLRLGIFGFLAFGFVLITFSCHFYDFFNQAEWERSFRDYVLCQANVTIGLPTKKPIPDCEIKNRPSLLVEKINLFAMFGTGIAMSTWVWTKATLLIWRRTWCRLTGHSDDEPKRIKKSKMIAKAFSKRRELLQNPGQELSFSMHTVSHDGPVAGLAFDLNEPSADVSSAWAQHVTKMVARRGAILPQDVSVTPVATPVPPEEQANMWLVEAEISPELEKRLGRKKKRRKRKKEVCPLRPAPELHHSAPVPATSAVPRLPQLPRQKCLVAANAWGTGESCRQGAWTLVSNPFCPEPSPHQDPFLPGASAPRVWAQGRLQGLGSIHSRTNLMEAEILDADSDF

[2] = molecular target: Protein smoothened (Mus musculus) (UniProt P56726); test: Antagonist activity at Smo in mouse NIH/3T3 cells transfected with Gli-dependent firefly luciferase reporter assessed as inhibition of SAG-induced maximal stimulation of Gli transcription factor at 1 uM incubated for 40 hrs relative to control; assay type: cell-based
[3] = molecular target: Protein smoothened (Mus musculus) (UniProt P56726); test: Agonist activity at Smo in mouse C3H10T1/2 cells assessed as effect on Gli1 expression at 10 uM after 48 hrs by RT-PCR method relative to vehicle-treated control; assay type: cell-based; details: C3H 10T1/2
[4] = molecular target: T1, Coelenterazine h 2-monooxygenase (Renilla reniformis) (UniProt P27652); test: Induction of Renilla reniformis luciferase activity at 10 uM relative to control
T1 sequence (whole entry): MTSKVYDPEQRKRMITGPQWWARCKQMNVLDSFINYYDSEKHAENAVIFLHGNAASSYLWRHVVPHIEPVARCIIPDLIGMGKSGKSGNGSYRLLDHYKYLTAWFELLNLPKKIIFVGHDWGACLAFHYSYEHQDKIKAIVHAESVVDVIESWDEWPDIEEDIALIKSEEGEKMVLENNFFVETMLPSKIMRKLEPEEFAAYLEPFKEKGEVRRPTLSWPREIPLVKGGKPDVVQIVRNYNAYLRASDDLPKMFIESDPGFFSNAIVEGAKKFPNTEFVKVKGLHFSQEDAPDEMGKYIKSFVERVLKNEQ

[5] = molecular target: Protein smoothened (Mus musculus) (UniProt P56726); test: Activity at Smo in mouse C3H10T1/2 cells assessed as induction of cell differentiation into osteoblast at 1 uM in presence of phosphodiesterase inhibitor IBMX incubated for 6 days by alkaline phosphatase assay; assay type: cell-based; details: C3H 10T1/2
[6] = molecular target: Protein smoothened (Mus musculus) (UniProt P56726); test: Agonist activity at Smo in mouse C3H10T1/2 cells assessed as effect on Gli2 expression at 10 uM after 48 hrs by RT-PCR method relative to vehicle-treated control; assay type: cell-based; details: C3H 10T1/2
[7] = molecular target: Protein smoothened (Mus musculus) (UniProt P56726); test: Agonist activity at Smo in mouse C3H10T1/2 cells assessed as effect on Smo expression at 10 uM after 48 hrs by RT-PCR method relative to vehicle-treated control; assay type: cell-based; details: C3H 10T1/2
[8] = molecular target: Protein smoothened (Mus musculus) (UniProt P56726); test: Activity at Smo in mouse C3H10T1/2 cells assessed as induction of cell differentiation into osteoblast incubated for 6 days by alkaline phosphatase assay; assay type: cell-based; details: C3H 10T1/2
[9] = molecular target: Protein smoothened (Mus musculus) (UniProt P56726); test: Activity at Smo in mouse C3H10T1/2 cells assessed as induction of cell differentiation into osteoblast at 1 uM in presence of adenylate cyclase activator forskolin incubated for 6 days by alkaline phosphatase assay; assay type: cell-based; details: C3H 10T1/2
[10] = molecular target: Protein smoothened (Mus musculus) (UniProt P56726); test: Agonist activity at Smo in mouse C3H10T1/2 cells assessed as effect on Gli3 expression at 10 uM after 48 hrs by RT-PCR method relative to vehicle-treated control; assay type: cell-based; details: C3H 10T1/2
[11] = molecular target: Protein smoothened (Mus musculus) (UniProt P56726); test: Agonist activity at Smo in mouse C3H10T1/2 cells assessed as effect on Ptc1 expression at 10 uM after 48 hrs by RT-PCR method relative to vehicle-treated control; assay type: cell-based; details: C3H 10T1/2
[12] = molecular target: Protein smoothened (Mus musculus) (UniProt P56726); test: Agonist activity at Smo in mouse C3H10T1/2 cells assessed as effect on Gli2 expression at 1 uM after 48 hrs by RT-PCR method relative to vehicle-treated control; assay type: cell-based; details: C3H 10T1/2
[13] = molecular target: Protein smoothened (Mus musculus) (UniProt P56726); test: Agonist activity at Smo in mouse C3H10T1/2 cells assessed as induction of cell differentiation into osteoblast incubated for 6 days by alkaline phosphatase assay; assay type: cell-based; details: C3H 10T1/2
[14] = molecular target: Protein smoothened (Mus musculus) (UniProt P56726); test: Induction of Smo translocation to primary cilium in mouse NIH/3T3 cells at 1 uM after overnight incubation by DAPI staining-based immunofluorescence assay relative to control; assay type: cell-based
[15] = molecular target: Protein smoothened (Mus musculus) (UniProt P56726); test: Agonist activity at Smo in mouse C3H10T1/2 cells assessed as effect on Smo expression at 1 uM after 48 hrs by RT-PCR method relative to vehicle-treated control; assay type: cell-based; details: C3H 10T1/2
[16] = molecular target: Protein smoothened (Mus musculus) (UniProt P56726); test: Agonist activity at Smo in mouse C3H10T1/2 cells assessed as effect on Gli1 expression at 1 uM after 48 hrs by RT-PCR method relative to vehicle-treated control; assay type: cell-based; details: C3H 10T1/2
[17] = molecular target: Protein smoothened (Mus musculus) (UniProt P56726); test: Agonist activity at Smo in mouse NIH/3T3 cells transfected with Gli-dependent firefly luciferase reporter assessed as stimulation of Gli transcription factor incubated for 40 hrs; assay type: cell-based
[18] = molecular target: Protein smoothened (Rattus norvegicus) (UniProt P97698); test: Agonist activity at Smo in cerebellar granule cell precursors isolated from rat at postnatal day 8 assessed as stimulation of proliferation by [3H]-thymidine incorporation assay
Protein smoothened (Rattus norvegicus), sequence (P97698 whole entry): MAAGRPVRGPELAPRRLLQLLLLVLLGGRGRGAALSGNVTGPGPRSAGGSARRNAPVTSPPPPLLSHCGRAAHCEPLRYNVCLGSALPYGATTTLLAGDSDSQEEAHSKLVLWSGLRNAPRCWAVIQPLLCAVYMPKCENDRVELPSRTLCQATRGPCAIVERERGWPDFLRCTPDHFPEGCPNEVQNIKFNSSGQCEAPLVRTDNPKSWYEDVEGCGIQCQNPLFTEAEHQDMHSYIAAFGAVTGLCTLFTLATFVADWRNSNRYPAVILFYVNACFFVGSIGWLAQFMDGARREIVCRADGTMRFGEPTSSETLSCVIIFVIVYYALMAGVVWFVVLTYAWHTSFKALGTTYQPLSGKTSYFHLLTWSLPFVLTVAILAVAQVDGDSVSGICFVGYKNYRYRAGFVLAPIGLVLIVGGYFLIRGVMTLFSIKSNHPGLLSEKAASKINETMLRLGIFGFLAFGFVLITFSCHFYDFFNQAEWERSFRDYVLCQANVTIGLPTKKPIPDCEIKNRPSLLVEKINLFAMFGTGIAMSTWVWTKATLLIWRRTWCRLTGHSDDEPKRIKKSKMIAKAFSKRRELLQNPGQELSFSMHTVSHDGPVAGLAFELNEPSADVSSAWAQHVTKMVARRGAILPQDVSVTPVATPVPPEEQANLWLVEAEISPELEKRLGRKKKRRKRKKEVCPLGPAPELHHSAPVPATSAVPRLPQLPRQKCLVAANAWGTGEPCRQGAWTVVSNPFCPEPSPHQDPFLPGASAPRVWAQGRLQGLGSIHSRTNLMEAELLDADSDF

[19] = molecular target: Protein smoothened (Mus musculus, UniProt P56726); test: Agonist activity at Smo in mouse NIH/3T3 cells transfected with Gli-dependent firefly luciferase reporter assessed as stimulation of Gli transcription factor; assay type: cell-based
Protein smoothened, sequence (P56726 whole entry): as the sequence (P56726 whole entry) above

[20] = molecular target: Protein smoothened (Mus musculus) (UniProt P56726); test: Agonist activity at Smo in mouse C3H10T1/2 cells assessed as effect on Gli3 expression at 1 uM after 48 hrs by RT-PCR method relative to vehicle-treated control; assay type: cell-based; details: C3H 10T1/2
[21] = molecular target: Protein smoothened (Mus musculus) (UniProt P56726); test: Agonist activity at Smo in mouse C3H10T1/2 cells assessed as induction of cell differentiation into osteoblast at 10 uM incubated for 6 days by alkaline phosphatase assay relative to GSA-10; assay type: cell-based; details: C3H 10T1/2
[22] = molecular target: Protein smoothened (Mus musculus) (UniProt P56726); test: Agonist activity at Smo in mouse C3H10T1/2 cells assessed as effect on Ptc1 expression at 1 uM after 48 hrs by RT-PCR method relative to vehicle-treated control; assay type: cell-based; details: C3H 10T1/2
[23] = molecular target: Protein smoothened (Mus musculus) (UniProt P56726); test: Activity at Smo in mouse C3H10T1/2 cells assessed as induction of cell differentiation into osteoblast at 0.3 uM in presence of phosphodiesterase inhibitor IBMX incubated for 6 days by alkaline phosphatase assay; assay type: cell-based; details: C3H 10T1/2
[24] = molecular target: Protein smoothened (Mus musculus) (UniProt P56726); test: Activity at Smo in mouse C3H10T1/2 cells assessed as induction of cell differentiation into osteoblast at 0.3 uM in presence of adenylate cyclase activator forskolin incubated for 6 days by alkaline phosphatase assay; assay type: cell-based; details: C3H 10T1/2
[25] = molecular target: Protein smoothened (Mus musculus) (UniProt P56726); test: Potency index, ratio of GSA-10 EC50 to compound EC50 for activity at Smo in mouse C3H10T1/2 cells assessed as induction of cell differentiation into osteoblast; assay type: cell-based; details: C3H 10T1/2

CCCCCCn1c(=O)c(C(=O)Nc2ccc(C(=O)OC(C)C)cc2)c(O)c2ccccc21
max activation [1]: 33%

CCCCCCn1c(=O)c(C(=O)Nc2ccc(C(=O)NCCCC)cc2)c(O)c2ccccc21
max activation [1]: 92%

CCCCCCn1c(=O)c(C(=O)Nc2cccc(C(=O)OC(C)(C)C)c2)c(O)c2ccccc21
max activation [1]: 1.3%

CCCCCCn1c(=O)c(C(=O)Nc2ccc(C(=O)OCCC)c(Cl)c2)c(O)c2ccccc21
max activation [1]: 11%

CCOC(=O)c1ccc(NC(=O)c2c(O)c3ccccc3n(Cc3ccccc3)c2=O)cc1
max activation [1]: 4%

CCCCCCn1c(=O)c(C(=O)Nc2cccc(C(=O)OCC)c2)c(O)c2ccccc21
max activation [1]: 1.7%

CCCCCCn1c(=O)c(C(=O)Nc2ccc(C(=O)OC(C)(C)C)cc2)c(O)c2ccccc21
max activation [1]: 69%

CCCOC(=O)c1ccc(NC(=O)c2c(O)c3ccccc3n(Cc3ccccc3)c2=O)cc1
max activation [1]: 7%

C=CCn1c(=O)c(C(=O)Nc2ccc(C(=O)OCCC)cc2)c(O)c2ccccc21
max activation [1]: 22%

CCCCCn1c(=O)c(C(=O)Nc2ccc([N+](=O)[O-])cc2)c(O)c2ccccc21
max activation [1]: 5%

CCCCCc1nc2ccccc2c(=O)n1NC(=O)c1c(O)c2ccccc2n(CC)c1=O
max activation [1]: 5%

CCCCCCn1c(=O)c(C(=O)Nc2ccc(C(=O)OCCC)cc2)c(O)c2ccccc21
inhibition [2]: 31%
fold change (FC) [3]: 0.05
Activity [4]: < 20%
Activity [5]: Active
fold change (FC) [6]: 1.35
fold change (FC) [7]: 0.8
Activity [8]: Dose-dependent effect
Activity [9]: Active
fold change (FC) [10]: 0.85
fold change (FC) [11]: 0.33

CCCCn1c(=O)c(C(=O)Nc2ccc(C(=O)OCCC)cc2)c(O)c2ccccc21
max activation [1]: 135%

CCCCCCn1c(=O)c(C(=O)Nc2ccc(OCC)cc2)c(O)c2ccccc21
max activation [1]: 1%

CCCCCCn1c(=O)c(C(=O)Nc2nc(CC(=O)OCC)cs2)c(O)c2ccccc21
max activation [1]: 3%

CCCCCCn1c(=O)c(C(=O)Nc2cccc(C(=O)OCCC)c2)c(O)c2ccccc21
max activation [1]: 2%

CCCCCn1c(=O)c(C(=O)Nc2ccc(C(=O)OCCCC)cc2)c(O)c2ccccc21
max activation [1]: 123%

CCCOC(=O)c1ccc(NC(=O)c2c(O)c3ccccc3n(CCC)c2=O)cc1
max activation [1]: 105%

CCCCCCn1c(=O)c(C(=O)Nc2ccc(C(=O)OCC)cc2)c(O)c2ccccc21
max activation [1]: 62%

CCCCCn1c(=O)c(C(=O)Nc2ccc([N+](=O)[O-])cc2O)c(O)c2ccccc21
max activation [1]: 3%

CCCCCCn1c(=O)c(C(=O)Nc2cccc(C(=O)OCCC)c2C(F)(F)F)c(O)c2ccccc21
max activation [1]: 1.4%

CCCOC(=O)c1ccc(NC(=O)c2c(O)c3cc(F)ccc3n(CCC)c2=O)cc1
max activation [1]: 98%

CCCOC(=O)c1ccc(NC(=O)c2c(O)c3cc(C)ccc3n(CCC)c2=O)cc1
max activation [1]: 85%

CCCCCn1c(=O)c(C(=O)Nc2ccc(C(=O)OCC)cc2)c(O)c2ccccc21
max activation [1]: 76%

CCCCCn1c(=O)c(C(=O)Nc2ccc(C(=O)OCCC)cc2)c(O)c2ccccc21
max activation [1]: 138%

CCCCCCn1c(=O)c(C(=O)Nc2ccc(C(=O)OCc3ccccc3)cc2)c(O)c2ccccc21
max activation [1]: 47%

CCCOC(=O)c1ccc(NC(=O)c2c(O)c3cccc4c3n(c2=O)CCC4)cc1
max activation [1]: 38%

CN[C@H]1CC[C@H](N(Cc2cccc(-c3ccncc3)c2)C(=O)c2sc3ccccc3c2Cl)CC1
fold change (FC) [12]: 1.24
Activity [13]: Dose-dependent effect
Activity [14]: > 60%
fold change (FC) [15]: 0.9
fold change (FC) [16]: 7.83
Activity [4]: < 20%
Activity [17]: Active
Activity [18]: Active
EC50 [19]: 30 nM
fold change (FC) [20]: 0.72
max activation [21]: 75%
fold change (FC) [22]: 5.32

CCCOC(=O)c1ccc(NC(=O)c2c(O)c3cc(OC)c(OC)cc3n(CCC)c2=O)cc1
max activation [1]: 138%
inhibition [2]: 54%
fold change (FC) [3]: 0.04
Activity [4]: < 20%
Activity [23]: Active
fold change (FC) [6]: 1.49
Activity [24]: Active
fold change (FC) [7]: 0.81
Activity [8]: Dose-dependent effect
fold change (FC) [10]: 0.86
fold change (FC) [11]: 0.27
Ratio EC50 [25]: 3

CCCCCCn1c(=O)c(C(=O)Nc2ccc(C(N)=O)cc2)c(O)c2ccccc21
max activation [1]: 1%

CCCCCCn1c(=O)c(C(=O)Nc2ccc(C(=O)OCCCC)cc2)c(O)c2ccccc21
max activation [1]: 88%

CCCCCCn1c(=O)c(C(=O)Nc2ccc(C(=O)NCCC)cc2)c(O)c2ccccc21
max activation [1]: 1.6%

CCCCCCn1c(=O)c(C(=O)Nc2cc(C)cc(C(=O)OCCC)c2)c(O)c2ccccc21
max activation [1]: 3%

CCCOC(=O)c1ccc(NC(=O)c2c(O)c3ccccc3n(C)c2=O)cc1
max activation [1]: 1%

CCCCCCn1c(=O)c(C(=O)Nc2ncc([N+](=O)[O-])s2)c(O)c2ccccc21
max activation [1]: 3%

CCCOC(=O)c1ccc(NC(=O)c2c(O)c3cc(Cl)ccc3n(CCC)c2=O)cc1
max activation [1]: 41%

CCCCCCn1c(=O)c(C(=O)Nc2ccc(C(=O)O)cc2)c(O)c2ccccc21
max activation [1]: 137%
inhibition [2]: 26%
fold change (FC) [3]: 0.05
Activity [4]: < 20%
Activity [23]: Active
fold change (FC) [6]: 1.63
Activity [24]: Active
fold change (FC) [7]: 0.92
Activity [8]: Dose-dependent effect
fold change (FC) [10]: 0.98
fold change (FC) [11]: 0.26
Ratio EC50 [25]: 2

c1ccc2c(Oc3nc(Nc4ccc(N5CCOCC5)cc4)c4ncn(C5CCCCC5)c4n3)cccc2c1
max activation [1]: 78%
